Laboratory results: paper PMC9635472, “Design, synthesis, and biological evaluation of novel ciprofloxacin derivatives as potential anticancer agents targeting topoisomerase II enzyme” (Journal of Enzyme Inhibition and Medicinal Chemistry, 2022)

How the values were obtained:
[1] = system: Human bladder cancer (T-24) cell line; assay: MTT cell viability assay, T-24 cells; type: cell-based; details: bladder cancer cell line T-24, treatment for 24 h (table title), means of three experiments, read-out: IC50 (μM* ± SD) T-24
Experimental: (§1) Human bladder cancer (T-24) and human prostate carcinoma (PC-3) cell lines were obtained from American Type Culture Collection (ATCC; Manassas, VA USA). Cells were maintained in Dulbecco’s modified Eagle medium with 10% foetal bovine serum at 37 °C and 5% CO2. All the operations were carried out under strict aseptic conditions. The culture medium was removed to a centrifuge tube containing 9.0 ml complete culture medium and spanned at approximately 125 × g for 5 to 7 min. The cell layer was rinsed with 0.25% (w/v) trypsin- […] EDTA solution by which all traces of serum-containing inhibitor were removed. Trypsin EDTA solution 2.0 to 3.0 ml was added to a flask and cells were monitored under an inverted microscope until the cell layer was dispersed (usually within 5–15 min). A complete growth medium was added (6.0–8.0 ml), and cells were aspirated by gentle pipetting. The cell pellet was suspended with the recommended complete medium and dispensed into a 75 cm^2 culture flask. The culture vessel containing the complete growth medium was placed in the incubator for 24 h to at 37 °C. The cells were treated with different concentrations (0.39, 1.60, 6.25, 25, and 100 μg/ml) of each of the test compounds or doxorubicin, […], then the plates were examined under the inverted microscope and finally the MTT assay was carried out.
(§2) Anti-cancer activity of the newly synthesised compounds was evaluated in vitro against both T-24 and PC-3 cell lines according to the MTT method. Cells were seeded into 96-well plates (flat bottom) at a density of 10 000 cells/well for 24 h. The vial of MTT to be used was reconstituted with 3 ml of medium or balanced salt solution without phenol red and serum. then, a reconstituted MTT vial was added in an amount equal to 10% of the culture medium volume. Cultures were incubated for 2–4 h depending on the cell type and maximum cell density and removed from the incubator and the formazan crystals were dissolved via the addition of an amount of MTT solubilisation solution (M-8910) equal to the original culture medium volume. ROBONIK P2000 spectrophotometer at a wavelength of 570 nm was used to measure the colour intensity spectrophotometrically. The survival curve of both T-24 and PC-3 cells was obtained by plotting the percentage of surviving cells against the drug after each compound. The IC50 value for each test compound and the reference drug doxorubicin was calculated.
(§3) In this study, all the newly synthesised CP derivatives were subjected to anticancer activity evaluation against bladder (T-24) and prostate cancer (PC-3) cell lines. The compounds were evaluated for their activity using 5 doses determinations (100 μg/ml, 25 μg/ml, 6.25 μg/ml, 1.60 μg/ml, and 0.39 μg/ml). Their half-maximal inhibitory concentration (IC50) values were measured. Doxorubicin was chosen as a reference anticancer drug[65].

[2] = system: human prostate carcinoma (PC-3) cell line; assay: MTT cell viability assay, PC-3 cells; type: cell-based; details: prostate cancer cell line PC-3, treatment for 24 h (table title), means of three experiments, read-out: IC50 (μM* ± SD) PC-3
Experimental: as §1, §2, §3

| SMILES | IC50 [1] [µM] | IC50 [2] [µM] | melting point [°C] |
| --- | --- | --- | --- |
| CC1=NN(C(=O)CN2CCN(c3cc4c(cc3F)c(=O)c(C(=O)O)cn4C3CC3)CC2)C(=O)C1 [Compound 3, 1-cyclopropyl-6-fluoro-7-(4-(2-(3-methyl-5-oxo-4,5-dihydro-1H-pyrazol-1-yl)-2-oxoethyl)piperazin-1-yl)-4-oxo-1,4-dihydroquinoline-3-carboxylic acid] | 37.3 ± 2.02 | 98.2 ± 5 | 188 to 190 |
| N=C1CC(=O)NN1C(=O)CN1CCN(c2cc3c(cc2F)c(=O)c(C(=O)O)cn3C2CC2)CC1 [Compound 4, 1-cyclopropyl-6-fluoro-7-(4-(2-(5-imino-3-oxopyrazolidin-1-yl)-2-oxoethyl)piperazin-1-yl)-4-oxo-1,4-dihydroquinoline-3-carboxylic acid] | 25.5 ± 1.38 | 29.9 ± 1.53 | 181 to 183 |
| Cc1cc(C)n(C(=O)CN2CCN(c3cc4c(cc3F)c(=O)c(C(=O)O)cn4C3CC3)CC2)n1 [Compound 5, 1-cyclopropyl-7-(4-(2-(3,5-dimethyl-1H-pyrazol-1-yl)-2-oxoethyl)piperazin-1-yl)-6-fluoro-4-oxo-1,4-dihydro-quinoline-3-carboxylic acid] | 25.9 ± 1.39 | 24.9 ± 1.26 | – |
| CC(=NNC(=O)CN1CCN(c2cc3c(cc2F)c(=O)c(C(=O)O)cn3C2CC2)CC1)c1ccc(N)cc1 [Compound 7c, 7-(4-(2-(2-(1-(4-Aminophenyl)ethylidene)hydrazinyl)-2-oxoethyl)-piperazin-1-yl)-1-cyclopropyl-6-fluoro-4-oxo-1,4-dihydroquinoline-3-carboxylic acid] | 25.6 ± 0.71 | 32.8 ± 0.86 | 173 to 175 |
| CC(=NNC(=O)CN1CCN(c2cc3c(cc2F)c(=O)c(C(=O)O)cn3C2CC2)CC1)c1ccccc1O [Compound 7d, 1-Cyclopropyl-6-fluoro-7-(4-(2-(2-(1-(2-hydroxyphenyl)ethylidene)hydrazinyl)-2-oxoethyl)piperazin-1-yl)-4-oxo-1,4-dihydroquinoline-3-carboxylic acid] | 88 ± 4.75 | 8.81 ± 0.44 | 166 to 168 |
| CC(=NNC(=O)CN1CCN(c2cc3c(cc2F)c(=O)c(C(=O)O)cn3C2CC2)CC1)c1cccs1 [Compound 7e, 1-Cyclopropyl-6-fluoro-4-oxo-7-(4-(2-oxo-2-(2-(1-(thiophen-2-yl)ethylidene)hydrazinyl)ethyl)piperazin-1-yl)-1,4-dihydroquinoline-3-carboxylic acid] | 25 ± 0.2 | 50.5 ± 10.4 | 245 to 247 |
| CC(=NNC(=O)CN1CCN(c2cc3c(cc2F)c(=O)c(C(=O)O)cn3C2CC2)CC1)c1ccc(Cl)s1 [Compound 7f, 7-(4-(2-(2-(1-(5-Chlorothiophen-2-yl)ethylidene)hydrazinyl)-2-oxoethyl)piperazin-1-yl)-1-cyclopropyl-6-fluoro-4-oxo-1,4-dihydro-quinoline-3-carboxylic acid] | 124 ± 6.7 | 136 ± 6.94 | 286 to 288 |
| O=C(CN1CCN(c2cc3c(cc2F)c(=O)c(C(=O)O)cn3C2CC2)CC1)NN=C1C(=O)Nc2cccc(Br)c21 [Compound 8b, 7-(4-(2-(2-(4-Bromo-2-oxoindolin-3-ylidene)hydrazinyl)-2-oxoethyl)piperazin-1-yl)-1-cyclopropyl-6-fluoro-4-oxo-1,4-dihydro-quinoline-3-carboxylic acid] | 336 ± 18.1 | 41.1 ± 2.09 | 263 to 265 |
| Cc1cccc(Cl)c1NC(=O)NNC(=O)CN1CCN(c2cc3c(cc2F)c(=O)c(C(=O)O)cn3C2CC2)CC1 [Compound 9b, 7-(4-(2-(2-((2-Chloro-6-methylphenyl)carbamoyl)hydrazinyl)-2-oxoethyl)piperazin-1-yl)-1-cyclopropyl-6-fluoro-4-oxo-1,4-dihydro-quinoline-3-carboxylic acid] | 28.6 ± 1.54 | 19.3 ± 0.98 | 285 to 287 |
